This passage reports IC50 results from article PMC3073714 (Chemistry and physics of lipids, 2010).

This assay addresses T1, DNA topoisomerase IB (LdTopIB) (Leishmania donovani, UniProt A0A3Q8IHS4+Q8WQM6).
T1 sequence (A0A3Q8IHS4 1-635): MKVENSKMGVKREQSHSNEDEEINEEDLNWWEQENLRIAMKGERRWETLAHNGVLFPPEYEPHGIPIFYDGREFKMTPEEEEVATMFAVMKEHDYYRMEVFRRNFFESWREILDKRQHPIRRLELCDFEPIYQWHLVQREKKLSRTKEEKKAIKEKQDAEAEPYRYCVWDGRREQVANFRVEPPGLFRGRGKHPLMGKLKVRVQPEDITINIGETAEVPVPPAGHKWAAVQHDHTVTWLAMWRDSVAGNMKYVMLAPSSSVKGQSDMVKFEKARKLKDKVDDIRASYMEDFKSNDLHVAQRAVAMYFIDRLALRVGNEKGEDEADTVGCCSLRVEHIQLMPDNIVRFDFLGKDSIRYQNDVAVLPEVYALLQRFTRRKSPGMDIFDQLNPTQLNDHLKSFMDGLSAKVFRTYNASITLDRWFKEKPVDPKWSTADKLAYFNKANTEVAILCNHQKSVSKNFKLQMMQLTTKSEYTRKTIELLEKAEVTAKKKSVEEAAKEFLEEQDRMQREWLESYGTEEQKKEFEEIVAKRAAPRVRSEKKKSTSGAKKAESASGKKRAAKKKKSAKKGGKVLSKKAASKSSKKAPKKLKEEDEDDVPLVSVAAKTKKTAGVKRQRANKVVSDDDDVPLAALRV
T1 sequence (Q8WQM6 1-262): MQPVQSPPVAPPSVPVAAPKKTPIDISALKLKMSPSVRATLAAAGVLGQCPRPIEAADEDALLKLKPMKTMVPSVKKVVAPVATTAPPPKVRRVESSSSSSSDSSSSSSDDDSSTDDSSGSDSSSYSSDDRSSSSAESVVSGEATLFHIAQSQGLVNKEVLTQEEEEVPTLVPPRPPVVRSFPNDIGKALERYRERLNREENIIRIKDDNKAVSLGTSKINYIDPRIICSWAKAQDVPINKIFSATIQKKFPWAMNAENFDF
Description: supercoiled plasmid DNA relaxation assay with purified recombinant enzyme. It is filed as biochemical.

Usually IC50 stands for the concentration that inhibits the measured activity by half. As for `CC(C)CCC/C=C\CCCCCCCCCC(=O)O` [compound 1, (Z)-16-methyl-11-heptadecenoic acid], the IC50 is 62.3 ± 0.7 µM.
